Laboratory results from article PMC5342726, “Identification of small molecule inhibitors of ERCC1-XPF that inhibit DNA repair and potentiate cisplatin efficacy in cancer cells” (Oncotarget, 2016).
Values belong to the molecule of their own block, whether it stands above or below them.

Legend:
H460 cells [1] = assay: Cisplatin intrastrand adduct repair by ELISA; type: cell-based; details: 72 hours (last time point), compound 15 μM 2 h then cisplatin at IC90 2 h; relative to 0 hour
H460 cells [2] = assay: Cisplatin interstrand crosslink repair by comet assay; type: cell-based; details: 72 hours, cisplatin at IC90 alone
Experimental: (B) After treatment, comet assay was performed as described at different time intervals (0, 24, 48 and 72 h). The percentage of interstrand crosslinks remaining was calculated using olive tail moment. Results are represented as mean ± SEM of three independent experiments.
The data is expressed as the percentage of crosslinks remaining at the time points assessed.
Cells were treated with compound (Hit control (9:1 DMSO-glycerol). After incubation at 37°C 1 or Hit 2) and cisplatin or just cisplatin alone in serum for 30 minutes, 2 μL of the pre-incubate was diluted into a free media. […] Cells were further treated with 100 μM
Cells were then trypsinized, pelleted and resuspended in 1% low melting point agarose.

H460 xenografts = details: 16168 20 mg/kg i.p. daily or cisplatin 3 mg/kg i.p. twice a week, 10 days
ERCC1-XPF = target: T1, ERCC1-XPF (Homo sapiens, UniProt P07992+Q92889); assay: HTS fluorescence assay of ERCC1-XPF endonuclease activity; type: biochemical; details: IC50s calculated by CompuSyn, SD from 3 plots, read-out: ERCC1-XPF IC50
T1 construct: made in house; host or cells: Sf9 insect cells, baculovirus (obtained from Aziz Sancar)
T1 sequence (Q92889 1-916): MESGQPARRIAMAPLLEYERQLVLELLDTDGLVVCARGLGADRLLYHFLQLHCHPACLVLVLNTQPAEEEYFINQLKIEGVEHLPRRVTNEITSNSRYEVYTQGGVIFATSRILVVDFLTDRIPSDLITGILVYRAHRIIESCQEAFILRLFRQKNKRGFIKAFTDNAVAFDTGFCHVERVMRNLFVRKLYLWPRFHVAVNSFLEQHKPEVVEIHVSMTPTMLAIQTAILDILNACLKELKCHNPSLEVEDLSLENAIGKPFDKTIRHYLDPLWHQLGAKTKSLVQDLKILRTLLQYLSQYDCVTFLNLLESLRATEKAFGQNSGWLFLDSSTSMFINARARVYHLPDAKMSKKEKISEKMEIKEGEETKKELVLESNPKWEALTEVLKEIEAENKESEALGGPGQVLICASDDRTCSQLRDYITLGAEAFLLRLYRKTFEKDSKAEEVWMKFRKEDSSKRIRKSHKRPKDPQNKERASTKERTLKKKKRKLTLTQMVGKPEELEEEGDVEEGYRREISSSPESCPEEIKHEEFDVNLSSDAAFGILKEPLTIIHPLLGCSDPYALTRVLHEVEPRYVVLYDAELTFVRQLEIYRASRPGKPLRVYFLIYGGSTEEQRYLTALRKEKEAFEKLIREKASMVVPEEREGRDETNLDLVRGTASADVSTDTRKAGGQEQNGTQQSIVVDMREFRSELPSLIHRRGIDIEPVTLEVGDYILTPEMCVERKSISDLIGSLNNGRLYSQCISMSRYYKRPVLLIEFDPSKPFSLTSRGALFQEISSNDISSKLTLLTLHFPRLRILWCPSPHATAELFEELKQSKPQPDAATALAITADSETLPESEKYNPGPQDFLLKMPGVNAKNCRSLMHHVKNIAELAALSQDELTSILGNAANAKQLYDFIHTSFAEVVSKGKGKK
T1 sequence (P07992 1-297): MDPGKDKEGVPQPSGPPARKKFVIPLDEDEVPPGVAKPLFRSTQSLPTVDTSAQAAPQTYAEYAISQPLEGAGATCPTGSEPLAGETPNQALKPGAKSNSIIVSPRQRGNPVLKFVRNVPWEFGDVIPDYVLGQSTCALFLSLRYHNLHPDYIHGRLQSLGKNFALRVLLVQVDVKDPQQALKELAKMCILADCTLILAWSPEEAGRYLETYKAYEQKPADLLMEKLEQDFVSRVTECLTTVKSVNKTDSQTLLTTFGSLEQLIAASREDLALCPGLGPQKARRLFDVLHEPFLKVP
Text: To screen for ERCC1-XPF inhibition, an existing in vitro assay was optimized to a 96-well plate format to allow for screening of compound libraries (NCI-DTP diversity set). These compounds and subsequent vialed compounds were from the Drug Synthesis and Chemistry Branch, Developmental Therapeutics Program, Division of Cancer Treatment and Diagnosis at the National Cancer Institute. We used purified ERCC1-XPF (Supplementary Figure S1) and describe the purification procedure in Supplementary Information. The initial cuvette-based assay was optimized for DNA, MgCl2 concentrations as well as the incubation time to be used in the fluorescence assay in a 96 well plate format (Supplementary Figure S2). The assay consists of a 10 nM DNA (Q+Fl substrate annealed, described below) and 7.5 nM ERCC1-XPF protein in buffer containing 50 mM Tris-HCl pH8.0, 2 mM MgCl2, 0.1 mM BSA, and 0.5 mM β-mercaptoethanol. For preliminary screening, 150 μL of DNA was added to each well and the fluorescence signal was measured at 525 nm following excitation at 485 nm. Compounds or controls were then added to individual wells for a total of 80 compounds on each plate and the fluorescent signal was re-measured. We initially ran the screen using 50 μM compound and then repeated using 10 μM compound. 16 controls were used per plate, which consisted of buffer alone, DNA alone, ERCC1-XPF alone, 10 nM fluorescein ssDNA (positive signal), and 10 nM Q-Fl DNA with 7.5 nM ERCC1-XPF (positive signal). 7.5 nM ERCC1-XPF was added to each well containing the compounds and DNA and incubated for 30 minutes at 37°C after which the fluorescent signal was measured again.
The synthetic DNA substrate mimics a native forked ssDNA-dsDNA substrate of ERCC1-XPF (Figure 1A). This forked DNA substrate has a dsDNA region (14 bases) and a region containing two ssDNA flaps (12 bases each). One 26-mer DNA oligonucleotide contains a site-specific fluorescein modification at the indicated position (Fl Oligo: 5' - GCCAGCGCTCGGAT(AminoC6dT)(FLSN) TTTTTTTTTTT). The semi-complementary strand was synthesized containing a DABCYL quencher (Q) molecule at the depicted position (Q Oligo: 5' - TTTTTTTTTTT (AminoC6dT)(Dabcyl) ATCCGAGCGCTGGC; Figure 1A). The fluorescein (*) molecule has an excitation peak centered at 485 nm and an emission peak centered at 525 nm. The quencher (Q) molecule is able to quench the fluorescence signal of the fluorescein when it is in close proximity. The design of the semi-duplex DNA substrate is such that the fluorescein and DABCYL quencher are directly opposite one another at the double-stranded and single-stranded DNA junction (Figure 1A). […] Upon cleavage by ERCC1-XPF, (~4-5 bases from the dsDNA-ssDNA) the fluorescein label on the cleaved DNA is released into solution and results in a significant increase in fluorescence as the quencher is no longer in close proximity. The DNA substrate is also incorporated with a restriction enzyme site (HhaI) within the duplex DNA that results in a cleavage pattern similar to ERCC1-XPF. This serves as a positive control and allows assessment of ERCC1-XPF cleavage product. This DNA substrate is used in the solution based fluorescence screening assay to screen for inhibitors of ERCC1-XPF endonuclease activity. In the 96 well platform, the Z factor was calculated to be ~0.87 indicating a highly robust assay and highly suitable for a HTS. A Molecular Devices Spectramax M5 plate reader was used for fluorescence detection. The DNA substrate was the same for gel-based assays besides the fluorescent/quencher modifications and 5'-labeling using γ-ATP^32. For the secondary screen, the reaction was setup in a tube with 10 nM DNA, 7.5 nM XPF-ERCC1, 20 U/ml of HhaI, or 7.5 nM XPG (Supplementary Figure S3A) in nuclease reaction buffer with compound titration and incubated at 37°C for 30 minutes. The reaction was stopped by chelating the metal in the buffer and read in the Spectramax M5 plate reader.

H460 cells [3] = assay: Colony survival assay in H460 cells; type: cell-based; details: SAR, Supplementary Figure S6; cell line not stated
Experimental: We used H460, NSCLC cells, to first assess the impact on colony survival by knocking down ERCC1-XPF in these cells. […] Next, to assess if colony survival is affected we titrated cisplatin in these cells using a fixed concentration of Hit 1(50 μM) or Hit 2 (25 and 50 μM). […] Next, we assessed cisplatin potentiation by treating cells at a fixed cisplatin concentration (cisplatin IC50 in H460 cells) with Hit 1 or 2 titration (Figure 4C, filled symbols). H460 cells were treated with compound for a total of 4 hours while cisplatin was added to the media after 2 hours of compound pre-treatment. […] We also titrated Hit 1 or Hit 2 alone in these cells and treated for 4 h. […] We also assessed the effects of Hit 2 in another NSCLC cell line (H1299), which was either ERCC1 wildtype (WT) or knockout (KO) (Figure 4E).
Colony survival assay in a total reaction volume of 2.4 mL in a six-well plate Cells were split and seeded at a density of 300-400 format. Cells were transfected for 48 hours after which cells in a 60 mm plate and incubated overnight. The next complete media was added for 24 hours. Cells were day, the cells were treated with a fixed concentration of the seeded for clones and clones were selected using standard compound (Hit 1 or Hit 2) with cisplatin titration. After methods. ERCC1 KO clones were tested for ERCC1 treatment, fresh complete medium with antibiotics was and XPF expression by Western Blot using the ERCC1 added and the cells were then allowed to form colonies. In antibodies, 8F1, FL-297, and D-10 and the XPF antibody another method, the cells were seeded onto 60mm plates 3F2/3 (Santa Cruz).
Validation of genome editing was performed alone or titrated with a fixed concentration of cisplatin by PCR amplification with Taq polymerase (NEB) of (IC50 for the cell line used). Post treatment, the cells were exon 2 within the genomic DNA using the forward allowed to form colonies. Colonies were fixed with 95% primer: 5’ […]
methanol and stained with 0.2 % crystal violet. Colonies 3’ and the reverse primer: 5’ […]
with ≥50 cells were counted using a light microscope. Cell […] 3’. PCR product was cloned […]
survival was expressed as the ratio of average number of into a linearized pCR4-TOPO vector and transformed colonies in drug treated cells versus control cells x 100. into OneShot TOP10 E. coli using the TOPO-TA Cloning The experiment was done in triplicate for each drug Kit for Sequencing (Thermofisher). Bacterial colonies concentration. We have previously published the methods were selected with ampicillin and plasmid was extracted for ERCC1 and XPF knockdowns, which were used as using standard procedures. Plasmid was sequenced by controls. Briefly, cells were seeded onto six-well plates GeneWiz using an M13R primer. Potential sites of off-target editing in coding sequences were identified during
(density 2.5 × 10^5 cells /well) in antibiotic free media. guide RNA design with the Optimized CRISPR Design Two transfections were done at 24 h interval in each cell Tool. Primers were designed to amplify the exons line to knockdown ERCC1-XPF together according to containing the potential off-target sites and PCR product the manufacturer ’s (Dharmacon’s smartpools) protocol. was sequenced by GeneWiz. A list of specific off-target Addition of lipid reagent (Dharmafect 2, Dharmacon) sites and primers used to assess these off-target effects are […]

Structure (SMILES): N.N.[Cl][Pt][Cl] [Cisplatin, cis-diammine-dichloroplatinum (II)]
intrastrand adducts remaining (H460 cells [1]): ~ 15% | ICLs remaining (H460 cells [2]): 1-5% | tumor growth, single agent (H460 xenografts): initial tumor response that delayed tumor growth

Structure (SMILES): O=S(=O)(NCCO)c1cc[c]([Sb](=[O])([OH])[OH])cc1 [NSC13776]
IC50 (ERCC1-XPF): 1.15 ± 0.96 µM

IC50 (ERCC1-XPF): 0.79 ± 0.35 µM
Structure (SMILES): NC(=O)C[S+]([O-])CC(N)C(=O)O (stereo not shown) [NSC14161]

IC50 (ERCC1-XPF): 0.53 ± 0.128 µM
Structure (SMILES): C[C@@H](O)CN(CCN(C[C@@H](C)O)C[C@@H](C)O)C[C@@H](C)O.O=[N+]([O-])O.[Cu] [NSC103019]

Structure (SMILES): Oc1cc(O)c2c(c1)O[C@H](c1ccc(O)c(O)c1)[C@@H](O)[C@@H]2c1c(O)cc(O)c2c1O[C@H](c1ccc(O)c(O)c1)[C@@H](O)C2 [Procyanidin B3]
potentiation of cisplatin by structural analogues in cell culture / colony survival (H460 cells [3]): activity for only one of the structural analogues
